What all share (type): cell-based, human
In one test the test system is SU-DHL-6 cells. Kind of test: Signaling by Western blot. On the procedure:
(§1) Raji and SU-DHL-6 cells were treated with X-370 for 1 h (left panel) or treated with 0.5 μM X-370 for indicated times (middle panel). Right panel, Raji cells were incubated in fresh medium following treatment with 0.5 μM X-370 for 1 h. Indicated proteins were detected. (B) Raji-R (the rituximab-resistant derivatives of Raji cells) cells were resistant to X-370. The activity of X-370 on the proliferation of Raji parent and Raji-R cells was determined by CCK-8 assay as described in the methods section. (C) X-370 blocked phosphorylation of Akt but not Erk1/2 in Raji-R cells. Raji-R cells were treated with X-370 for 1h and indicated proteins were detected. Data shown are representative from three independent experiments.
(§2) Figure 5 Inhibition of Erk1/2 phosphorylation by X-370 contributed to its antiproliferative activity (A-C) X-370 inhibited Erk1/2 phosphorylation via PI3K-PDK1-MEK1/2 cascade but not the PI3K-Gab1 positive feedback loop. (A) Raji and SU-DHL-6 cells were exposed to 1 μM X370 for 3 h and protein fraction from cellular membrane was separated using Native Membrane Protein Extraction Kit and probed. WCL: whole cell lysate. (B) Inhibition of PDK1 or MEK1/2 abrogated Erk1/2 phosphorylation. Cells were treated with pharmacological inhibitors of Raf (AZ 628, PLX4032), MEK1/2 (AZD6244), p90RSK (BI-D1870), PI3Kδ (X-370), PDK1 (BX-912), Akt (MK-2206), mTOR (AZD8055) or mTORC1 (Rapamycin) respectively and indicated proteins were detected. (C) X-370 disrupted the association between PDK1 and MEK1/2. Raji cells were treated with 1 μM X370 for 1 h and cell lysates were immunoprecipitated with anti-PDK1 antibody and indicated proteins were detected. WCL: whole cell lysate. (D-F) Inhibition of Erk1/2 phosphorylation was required for the anti-proliferative activity of X-370. (D) Raji cells ectopically expressing a constitutively activated phospho-mimic MEK1 mutant (MEK1 […] or MEK DD) were incubated with X-370 or AZD6244 for 1 h and then subjected to Western blot. (E) Raji and Raji MEK DD cells were treated with X-370 for 72 h and cell proliferation was detected by CCK-8 assay. (F) Raji MEK DD cells were treated with X-370 and AZD6244 and cell proliferation was detected by CCK-8 assay. Data were show as mean ± SD of three independent experiments. *: p < 0.05 determined by t-tests at each data point. […]
(§3) Cells were treated as indicated conditions and then subjected to lysate to perform standard Western blot as described previously1. Briefly, whole-cell lysates and SDS-loading buffer diluted cell fractions were analyzed on SDS-PAGE gels. Transfer to nitrocellulose membranes, nonfat milk blocking, probing with indicated primary antibodies and the corresponding HRP-conjugated second antibodies.
(§4) Chemiluminescence were performed and captured using ImageQuant LAS 4000 (GE healthcare Life Sciences, Piscataway, NJ, USA) and band intensity was measure both with ImageQuant™ TL (GE Healthcare Life Sciences) 2. […]
(§5) (also on this page, place not known: PI3Kδ -dependent MEK1/2 - B -cell previously 1. whole -cell SDS -loading SDS -PAGE HRP -conjugated (G E A B Val828 Trp760 Thr750 Met752 Tyr813 affinity pocket specificity pocket hinge Glu826 CAL-101 X-370) […]
(§6) (1 picture or pasted object on this page, not shown here)
On the technique in general: A western blot detects proteins with antibodies after separation by electrophoresis.

For test [1], the system named is Raji cells. Kind of test: Signaling by Western blot. As to conditions: Raji. Here is the method:
as §1, §2, §3, §4, §5, §6

Test [2] has as its system Raji cells. The test can be described thus: Cell cycle distribution (PI staining, FACS). As to conditions: 24 h. From the text:
Figure 3 PI3Kδ inhibition led to blockade of B cell leukemia cells proliferation via induction of cell cycle arrest and apoptosis Raji cells treated with X-370 for indicated times and at serial diluted concentrations were subjected to Annexin V-FITC/PI staining (A) and PI staining (B) and FACS analysis to show cell apoptosis and cell cycle distribution respectively. (C) X-370 inhibited proliferation of human leukemia primary cells. Freshly isolated human primary mononuclear cells from bone marrow samples of patients were treated with X-370 for 72 h and cell viability was assayed using CCK-8 assay. IC50s of each sample were plotted where 10 μM was assigned to specimens with IC50 >10 μM. Each symbol represents an individual patient sample. […]

Structures are written as SMILES.

As to `O=C(N1CCCC1)N1CCC(n2cnc3c(-n4c(C(F)F)nc5ccccc54)nc(N4CCOCC4)nc32)CC1` [X-370], the “phosphorylation of Erk1/2 at T202/Y204” value in the test with SU-DHL-6 cells (SU-DHL-6) and in the test on Raji cells [1] was “decreased in lockstep with inactivation of Akt” in each case. The “phosphorylation of Akt at the membrane” value in the test with SU-DHL-6 cells (SU-DHL-6, 1 μM, 3 h, membrane fraction) is on record as “abolished”; with Raji cells [1] (1 μM, 3 h, membrane fraction) it was “abolished”. Also, the “concentration as low as which Akt phosphorylation was significantly reduced” value in the test with SU-DHL-6 cells (SU-DHL-6, 1 h) turned out to be 5 nM; in the test on Raji cells [1] (1 h), 5 nM. The “reversibility of action on PI3K and Erk1/2 after compound removal” value with SU-DHL-6 cells (SU-DHL-6, 0.5 μM 1 h then drug-free medium, restoration after 15 minutes to 1 h) is “rapidly reversible”; in the test on Raji cells [1] (0.5 μM 1 h then drug-free medium, restoration after 15 minutes to 1 h), “rapidly reversible”. Besides, the “phosphorylation of MEK1/2 at Ser217/221” value with Raji cells [1] (1 μM, 1 h) was “inhibited”. For the same compound, the cell cycle distribution entry in the test with Raji cells [2] is on record as “increase in cell population in G1 phase”.

For the origin of these results see article PMC4279406, “Simultaneous targeting of PI3Kδ and a PI3Kδ-dependent MEK1/2-Erk1/2 pathway for therapy in pediatric B-cell acute lymphoblastic leukemia” (Oncotarget, 2014).
